Measured values from ChEMBL document CHEMBL2417377, “Hit-to-lead optimization and kinase selectivity of imidazo[1,2-a]quinoxalin-4-amine derived JNK1 inhibitors” (Bioorg Med Chem Lett, 2013).

Legend:
[1] = target: T1, Dual specificity mitogen-activated protein kinase kinase 3 (Homo sapiens) (UniProt P46734); assay: Inhibition of MAP2K3 in human PC3 cell lysates at 10 uM using desthiobiotin-tagged ATP probe AX9989 followed by trypsinization by LC/MS analysis; conditions: PC-3
T1 sequence (whole entry): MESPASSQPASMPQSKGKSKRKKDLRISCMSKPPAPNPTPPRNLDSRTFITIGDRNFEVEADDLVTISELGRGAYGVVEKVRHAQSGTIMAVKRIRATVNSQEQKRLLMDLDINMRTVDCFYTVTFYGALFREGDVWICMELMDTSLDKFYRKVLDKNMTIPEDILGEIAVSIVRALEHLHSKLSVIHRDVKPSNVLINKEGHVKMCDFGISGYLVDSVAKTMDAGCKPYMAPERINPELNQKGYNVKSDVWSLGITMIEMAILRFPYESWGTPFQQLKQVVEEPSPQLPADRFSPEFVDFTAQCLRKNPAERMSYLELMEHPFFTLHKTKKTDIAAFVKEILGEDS

[2] = test system: PC-3; assay: Inhibition of KHS2 in human PC3 cell lysates at 10 uM using desthiobiotin-tagged ATP probe AX9989 followed by trypsinization by LC/MS analysis; format: cell-free
[3] = target: Interleukin-1 receptor-associated kinase 1 (Homo sapiens) (UniProt P51617); assay: Inhibition of IRAK1 in human PC3 cell lysates at 10 uM using desthiobiotin-tagged ATP probe AX9989 followed by trypsinization by LC/MS analysis; conditions: PC-3
Sequence of Interleukin-1 receptor-associated kinase 1 (Homo sapiens) (P51617 whole entry, looked up): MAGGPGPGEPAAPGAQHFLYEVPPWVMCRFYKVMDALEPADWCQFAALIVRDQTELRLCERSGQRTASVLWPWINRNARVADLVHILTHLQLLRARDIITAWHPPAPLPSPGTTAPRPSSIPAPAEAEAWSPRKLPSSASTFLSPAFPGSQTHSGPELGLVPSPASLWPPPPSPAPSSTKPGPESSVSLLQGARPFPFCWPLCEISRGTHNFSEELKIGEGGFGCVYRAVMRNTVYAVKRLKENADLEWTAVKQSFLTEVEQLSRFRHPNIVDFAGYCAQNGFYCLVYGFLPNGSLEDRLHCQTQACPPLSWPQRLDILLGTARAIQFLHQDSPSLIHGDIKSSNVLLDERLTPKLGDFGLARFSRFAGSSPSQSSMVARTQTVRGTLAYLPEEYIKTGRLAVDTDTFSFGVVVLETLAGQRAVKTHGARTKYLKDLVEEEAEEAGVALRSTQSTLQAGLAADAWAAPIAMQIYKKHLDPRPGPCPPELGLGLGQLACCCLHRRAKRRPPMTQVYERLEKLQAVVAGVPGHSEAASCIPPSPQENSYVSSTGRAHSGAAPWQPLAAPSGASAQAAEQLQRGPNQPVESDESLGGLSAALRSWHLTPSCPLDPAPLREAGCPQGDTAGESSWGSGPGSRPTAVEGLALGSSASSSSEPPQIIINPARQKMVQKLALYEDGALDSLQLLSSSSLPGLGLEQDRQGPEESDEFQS

[4] = target: T2, Ephrin type-B receptor 4 (Homo sapiens) (UniProt P54760); assay: Inhibition of EphB4 in human PC3 cell lysates at 10 uM using desthiobiotin-tagged ATP probe AX9989 followed by trypsinization by LC/MS analysis; conditions: PC-3
T2 sequence (whole entry): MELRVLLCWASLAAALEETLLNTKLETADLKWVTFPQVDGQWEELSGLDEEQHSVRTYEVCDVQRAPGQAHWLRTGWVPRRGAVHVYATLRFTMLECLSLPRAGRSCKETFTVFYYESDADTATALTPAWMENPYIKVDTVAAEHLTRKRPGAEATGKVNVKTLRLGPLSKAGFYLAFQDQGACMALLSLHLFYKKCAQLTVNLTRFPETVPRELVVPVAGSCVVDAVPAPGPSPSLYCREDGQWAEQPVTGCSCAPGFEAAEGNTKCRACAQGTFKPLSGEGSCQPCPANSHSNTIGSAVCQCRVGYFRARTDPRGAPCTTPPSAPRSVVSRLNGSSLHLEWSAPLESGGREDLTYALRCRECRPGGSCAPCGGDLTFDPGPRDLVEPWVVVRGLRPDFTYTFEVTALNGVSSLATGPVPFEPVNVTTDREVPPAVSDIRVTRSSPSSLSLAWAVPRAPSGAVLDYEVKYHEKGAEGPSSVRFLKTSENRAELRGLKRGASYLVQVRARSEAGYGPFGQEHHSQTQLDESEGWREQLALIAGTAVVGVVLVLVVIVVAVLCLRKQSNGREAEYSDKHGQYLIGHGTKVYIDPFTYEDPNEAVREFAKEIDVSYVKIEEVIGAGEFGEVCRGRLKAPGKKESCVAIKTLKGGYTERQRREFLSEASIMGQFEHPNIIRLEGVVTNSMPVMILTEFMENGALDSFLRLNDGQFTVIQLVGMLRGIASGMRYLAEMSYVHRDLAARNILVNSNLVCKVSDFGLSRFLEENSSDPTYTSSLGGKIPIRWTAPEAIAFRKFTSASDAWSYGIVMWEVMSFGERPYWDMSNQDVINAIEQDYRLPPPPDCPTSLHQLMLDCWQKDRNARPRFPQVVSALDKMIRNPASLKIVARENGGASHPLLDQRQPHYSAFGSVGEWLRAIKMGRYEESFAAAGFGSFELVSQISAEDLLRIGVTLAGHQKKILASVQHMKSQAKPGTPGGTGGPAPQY

[5] = target: PI4KA/PI4KAP2 (Homo sapiens) (UniProt P42356+A4QPH2); assay: Inhibition of PI4KA/PI4KAP2 in human PC3 cell lysates at 10 uM using desthiobiotin-tagged ATP probe AX9989 followed by trypsinization by LC/MS analysis; format: protein-complex assay; conditions: PC-3
[6] = target: eIF-2-alpha kinase GCN2 (Homo sapiens) (UniProt Q9P2K8); assay: Inhibition of GCN2 in human PC3 cell lysates at 10 uM using desthiobiotin-tagged ATP probe AX9989 followed by trypsinization by LC/MS analysis; conditions: PC-3
Sequence of eIF-2-alpha kinase GCN2 (Homo sapiens) (Q9P2K8 whole entry): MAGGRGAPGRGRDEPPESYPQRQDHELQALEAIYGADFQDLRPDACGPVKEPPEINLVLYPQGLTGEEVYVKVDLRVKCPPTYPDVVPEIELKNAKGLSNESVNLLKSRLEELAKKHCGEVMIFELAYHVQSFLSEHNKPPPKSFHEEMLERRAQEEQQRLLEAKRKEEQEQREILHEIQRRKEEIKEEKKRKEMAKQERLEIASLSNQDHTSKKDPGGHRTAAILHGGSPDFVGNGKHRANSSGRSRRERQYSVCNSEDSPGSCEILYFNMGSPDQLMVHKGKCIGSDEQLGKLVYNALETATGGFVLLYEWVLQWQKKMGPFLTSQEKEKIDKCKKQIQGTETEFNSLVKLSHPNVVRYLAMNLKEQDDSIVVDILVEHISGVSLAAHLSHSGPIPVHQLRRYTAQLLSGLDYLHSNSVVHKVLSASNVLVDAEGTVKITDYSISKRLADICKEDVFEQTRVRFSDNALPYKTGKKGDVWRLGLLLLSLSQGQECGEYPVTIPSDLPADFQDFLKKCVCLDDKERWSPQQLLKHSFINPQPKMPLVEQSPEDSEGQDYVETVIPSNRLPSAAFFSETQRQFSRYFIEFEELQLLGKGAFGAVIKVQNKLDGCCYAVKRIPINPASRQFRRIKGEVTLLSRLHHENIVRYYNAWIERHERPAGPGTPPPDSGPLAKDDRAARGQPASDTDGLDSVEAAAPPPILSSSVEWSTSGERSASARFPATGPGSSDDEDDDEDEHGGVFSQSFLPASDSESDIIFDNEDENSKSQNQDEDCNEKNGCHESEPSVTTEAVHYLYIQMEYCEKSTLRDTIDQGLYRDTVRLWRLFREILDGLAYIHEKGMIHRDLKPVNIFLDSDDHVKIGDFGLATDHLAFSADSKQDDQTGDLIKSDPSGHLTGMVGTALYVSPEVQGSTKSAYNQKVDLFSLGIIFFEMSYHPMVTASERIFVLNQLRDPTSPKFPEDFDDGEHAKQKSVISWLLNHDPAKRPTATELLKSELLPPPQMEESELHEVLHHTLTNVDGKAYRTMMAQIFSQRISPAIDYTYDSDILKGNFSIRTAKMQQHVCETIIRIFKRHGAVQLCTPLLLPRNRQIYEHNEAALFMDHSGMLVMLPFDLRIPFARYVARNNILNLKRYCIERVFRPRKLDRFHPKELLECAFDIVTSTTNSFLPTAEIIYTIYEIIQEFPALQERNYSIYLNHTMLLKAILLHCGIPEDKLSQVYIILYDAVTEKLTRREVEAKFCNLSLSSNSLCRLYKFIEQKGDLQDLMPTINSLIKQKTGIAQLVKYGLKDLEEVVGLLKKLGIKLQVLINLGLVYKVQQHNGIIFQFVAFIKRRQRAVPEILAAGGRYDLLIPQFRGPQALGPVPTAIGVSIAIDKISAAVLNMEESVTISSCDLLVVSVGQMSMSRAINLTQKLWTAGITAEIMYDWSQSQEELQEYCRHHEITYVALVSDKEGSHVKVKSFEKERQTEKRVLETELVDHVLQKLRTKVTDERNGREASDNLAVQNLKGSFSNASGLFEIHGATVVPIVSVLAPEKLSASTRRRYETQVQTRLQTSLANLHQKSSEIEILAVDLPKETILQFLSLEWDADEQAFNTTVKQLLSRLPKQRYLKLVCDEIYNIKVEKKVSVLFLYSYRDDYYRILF

[7] = target: Ribosomal protein S6 kinase beta-1 (Homo sapiens) (UniProt P23443); assay: Inhibition of p70S6K in human PC3 cell lysates at 10 uM using desthiobiotin-tagged ATP probe AX9989 followed by trypsinization by LC/MS analysis; conditions: PC-3
Sequence of Ribosomal protein S6 kinase beta-1 (Homo sapiens) (P23443 whole entry, looked up): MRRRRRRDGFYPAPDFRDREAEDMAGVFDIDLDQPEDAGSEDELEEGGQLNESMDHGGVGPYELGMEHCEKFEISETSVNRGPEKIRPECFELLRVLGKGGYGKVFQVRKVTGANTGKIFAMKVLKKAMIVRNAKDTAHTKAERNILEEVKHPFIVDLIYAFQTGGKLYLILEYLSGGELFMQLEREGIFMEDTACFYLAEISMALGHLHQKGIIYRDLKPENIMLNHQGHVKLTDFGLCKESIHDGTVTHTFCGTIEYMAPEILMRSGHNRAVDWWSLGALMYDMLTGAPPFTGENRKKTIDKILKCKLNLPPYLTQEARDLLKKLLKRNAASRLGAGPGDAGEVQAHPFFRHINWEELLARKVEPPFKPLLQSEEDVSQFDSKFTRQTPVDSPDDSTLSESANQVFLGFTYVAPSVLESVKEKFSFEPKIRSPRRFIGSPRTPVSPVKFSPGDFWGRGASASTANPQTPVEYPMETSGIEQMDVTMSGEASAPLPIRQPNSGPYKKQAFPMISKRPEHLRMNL

[8] = target: Mitogen-activated protein kinase 14 (Homo sapiens) (UniProt Q16539); assay: Inhibition of p38alpha in human PC3 cell lysates at 10 uM using desthiobiotin-tagged ATP probe AX9989 followed by trypsinization by LC/MS analysis; conditions: PC-3
Sequence of Mitogen-activated protein kinase 14 (Homo sapiens) (Q16539 whole entry): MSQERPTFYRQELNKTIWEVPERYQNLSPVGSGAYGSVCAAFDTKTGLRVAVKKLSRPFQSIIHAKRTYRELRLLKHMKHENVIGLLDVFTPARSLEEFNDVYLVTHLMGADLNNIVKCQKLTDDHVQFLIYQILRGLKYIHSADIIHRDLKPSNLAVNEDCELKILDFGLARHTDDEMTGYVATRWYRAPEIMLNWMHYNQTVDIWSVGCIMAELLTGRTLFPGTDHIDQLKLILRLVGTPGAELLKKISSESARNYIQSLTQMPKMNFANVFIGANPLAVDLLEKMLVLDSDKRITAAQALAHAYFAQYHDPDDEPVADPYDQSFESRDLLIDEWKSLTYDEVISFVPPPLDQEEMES

[9] = target: Serine/threonine-protein kinase Nek6 (Homo sapiens) (UniProt Q9HC98); assay: Inhibition of NEK6 in human PC3 cell lysates at 10 uM using desthiobiotin-tagged ATP probe AX9989 followed by trypsinization by LC/MS analysis; conditions: PC-3
Sequence of Serine/threonine-protein kinase Nek6 (Homo sapiens) (Q9HC98 whole entry): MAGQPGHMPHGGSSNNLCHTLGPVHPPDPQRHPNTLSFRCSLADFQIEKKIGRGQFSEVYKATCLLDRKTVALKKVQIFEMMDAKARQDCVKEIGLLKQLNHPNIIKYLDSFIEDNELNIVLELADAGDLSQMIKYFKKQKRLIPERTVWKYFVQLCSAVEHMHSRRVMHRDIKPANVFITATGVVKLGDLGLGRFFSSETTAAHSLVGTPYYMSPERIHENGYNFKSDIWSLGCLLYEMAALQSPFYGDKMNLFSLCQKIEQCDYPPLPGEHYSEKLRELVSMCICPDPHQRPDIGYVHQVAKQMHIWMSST

[10] = target: 3-phosphoinositide-dependent protein kinase 1 (Homo sapiens) (UniProt O15530); assay: Inhibition of PDK1 in human PC3 cell lysates at 10 uM using desthiobiotin-tagged ATP probe AX9989 followed by trypsinization by LC/MS analysis; conditions: PC-3
Sequence of 3-phosphoinositide-dependent protein kinase 1 (Homo sapiens) (O15530 whole entry, looked up): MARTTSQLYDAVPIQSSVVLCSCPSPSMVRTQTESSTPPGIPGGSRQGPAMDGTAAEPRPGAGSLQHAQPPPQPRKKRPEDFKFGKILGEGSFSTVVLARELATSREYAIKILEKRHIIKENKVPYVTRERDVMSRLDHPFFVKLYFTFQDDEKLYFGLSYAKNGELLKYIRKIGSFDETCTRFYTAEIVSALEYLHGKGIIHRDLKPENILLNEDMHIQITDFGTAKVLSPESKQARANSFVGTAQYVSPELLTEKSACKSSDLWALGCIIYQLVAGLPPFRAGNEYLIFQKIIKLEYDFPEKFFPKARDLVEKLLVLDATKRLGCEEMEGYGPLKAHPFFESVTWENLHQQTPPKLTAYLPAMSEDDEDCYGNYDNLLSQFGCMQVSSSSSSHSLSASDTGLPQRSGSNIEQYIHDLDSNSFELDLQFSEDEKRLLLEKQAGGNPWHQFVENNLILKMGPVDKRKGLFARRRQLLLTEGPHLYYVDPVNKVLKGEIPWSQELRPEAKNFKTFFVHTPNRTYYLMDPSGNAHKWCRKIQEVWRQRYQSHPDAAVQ

[11] = target: MAP/microtubule affinity-regulating kinase 3 (Homo sapiens) (UniProt P27448); assay: Inhibition of MARK3 in human PC3 cell lysates at 10 uM using desthiobiotin-tagged ATP probe AX9989 followed by trypsinization by LC/MS analysis; conditions: PC-3
Sequence of MAP/microtubule affinity-regulating kinase 3 (Homo sapiens) (P27448 whole entry, looked up): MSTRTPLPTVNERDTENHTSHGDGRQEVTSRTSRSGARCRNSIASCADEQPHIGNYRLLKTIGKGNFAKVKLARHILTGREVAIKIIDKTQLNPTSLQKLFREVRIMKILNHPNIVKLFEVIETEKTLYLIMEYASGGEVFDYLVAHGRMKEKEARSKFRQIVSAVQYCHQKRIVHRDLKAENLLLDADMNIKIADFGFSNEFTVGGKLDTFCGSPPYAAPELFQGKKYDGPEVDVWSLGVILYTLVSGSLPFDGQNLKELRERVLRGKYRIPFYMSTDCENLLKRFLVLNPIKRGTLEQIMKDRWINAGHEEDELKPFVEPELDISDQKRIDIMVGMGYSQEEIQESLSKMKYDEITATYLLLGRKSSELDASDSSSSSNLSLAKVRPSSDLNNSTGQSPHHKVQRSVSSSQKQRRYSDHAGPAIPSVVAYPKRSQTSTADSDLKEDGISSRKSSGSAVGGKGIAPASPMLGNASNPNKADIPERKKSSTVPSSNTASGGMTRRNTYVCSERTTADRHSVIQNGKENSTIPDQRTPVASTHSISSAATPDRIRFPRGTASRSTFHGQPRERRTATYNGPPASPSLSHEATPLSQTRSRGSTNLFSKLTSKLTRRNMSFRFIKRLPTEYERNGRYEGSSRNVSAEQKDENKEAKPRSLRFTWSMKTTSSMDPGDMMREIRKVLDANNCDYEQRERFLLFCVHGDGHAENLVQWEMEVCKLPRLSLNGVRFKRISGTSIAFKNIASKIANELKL

| inhibition [1] [%] | inhibition [3] [%] | inhibition [4] [%] | inhibition [5] [%] | inhibition [6] [%] | inhibition [7] [%] | inhibition [8] [%] | inhibition [9] [%] | inhibition [10] [%] | inhibition [11] [%] | Structure (SMILES) | inhibition [2] [%] |
| --- | --- | --- | --- | --- | --- | --- | --- | --- | --- | --- | --- |
| < 35 | < 35 | < 35 | < 35 | 56.4 | < 35 | < 35 | < 35 | < 35 | < 35 | O=C(N[C@H](CO)c1ccccc1)c1ccc2nc(N[C@H]3CC[C@H](O)CC3)c3nccn3c2c1 | < 35 |
| < 35 | < 35 | < 35 | < 35 | < 35 | < 35 | < 35 | < 35 | < 35 | < 35 | CC(C)(NC(=O)c1ccc2nc(N[C@H]3CC[C@H](O)CC3)c3nccn3c2c1)c1ccccc1 | < 35 |
| < 35 | < 35 | < 35 | < 35 | < 35 | < 35 | < 35 | < 35 | < 35 | < 35 | NC(=O)c1ccc2nc(N[C@H]3CC[C@H](O)CC3)c3nccn3c2c1 | < 35 |
| < 35 | < 35 | < 35 | < 35 | < 35 | < 35 | < 35 | < 35 | < 35 | < 35 | CCC[C@@H](NC(=O)c1ccc2nc(N[C@H]3CC[C@H](O)CC3)c3nccn3c2c1)c1ccccc1 | < 35 |
| < 35 | < 35 | < 35 | < 35 | 54 | < 35 | < 35 | < 35 | < 35 | < 35 | C[C@@H](NC(=O)c1ccc2nc(N[C@H]3CC[C@H](O)CC3)c3nccn3c2c1)c1ccccc1 | < 35 |
| < 35 | < 35 | < 35 | < 35 | < 35 | < 35 | < 35 | < 35 | < 35 | < 35 | O=C(NC1(c2ccccc2)CC1)c1ccc2nc(N[C@H]3CC[C@H](O)CC3)c3nccn3c2c1 | < 35 |
| < 35 | < 35 | < 35 | < 35 | 38.5 | < 35 | < 35 | < 35 | < 35 | < 35 | CC[C@@H](NC(=O)c1ccc2nc(N[C@H]3CC[C@H](O)CC3)c3nccn3c2c1)c1ccccc1 | < 35 |
| < 35 | < 35 | < 35 | < 35 | < 35 | < 35 | < 35 | < 35 | < 35 | < 35 | O=C(NC1(Cc2ccc(F)cc2)CC1)c1ccc2nc(N[C@H]3CC[C@H](O)CC3)c3nccn3c2c1 | < 35 |
| < 35 | < 35 | < 35 | < 35 | < 35 | < 35 | < 35 | < 35 | < 35 | < 35 | C[C@H](NC(=O)c1ccc2nc(N[C@H]3CC[C@H](O)CC3)c3nccn3c2c1)c1ccccc1 | < 35 |
| < 35 | < 35 | < 35 | < 35 | < 35 | < 35 | < 35 | < 35 | < 35 | < 35 | O=C(NC1(c2ccccc2)CCC1)c1ccc2nc(N[C@H]3CC[C@H](O)CC3)c3nccn3c2c1 | < 35 |
| < 35 | < 35 | < 35 | < 35 | < 35 | < 35 | < 35 | < 35 | < 35 | < 35 | O=C(NC1(c2ccc(F)cc2)CC1)c1ccc2nc(N[C@H]3CC[C@H](O)CC3)c3nccn3c2c1 | < 35 |
| < 35 | < 35 | < 35 | 73.1 | 41.7 | < 35 | < 35 | < 35 | < 35 | < 35 | O=C(O)c1ccc2nc(N[C@H]3CC[C@H](O)CC3)c3nccn3c2c1 | < 35 |
